Source: PubChem BioAssay (NCI)
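These data come from cells grown in 96-well plates and exposed to compound for 48 hours at five concentrations. Definition used: TGI = concentration required for complete inhibition of growth.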

Tests used:
Test in all cases: NCI-60 cell line screen, 48 h
[1] = test system: CAKI-1 renal
[2] = test system: NCI-H460 lung
[3] = test system: OVCAR-8 ovarian
[4] = test system: UACC-62 melanoma
[5] = test system: M14 melanoma
[6] = test system: HCT-15 colon
[7] = test system: 786-0 renal
[8] = test system: OVCAR-5 ovarian
[9] = test system: BT-549 breast
[10] = test system: A549 NSCLC
[11] = test system: SF-268 CNS
[12] = test system: LOX IMVI melanoma
[13] = test system: NCI-H522 lung
[14] = test system: SN12C renal
[15] = test system: MALME-3M melanoma
[16] = test system: SK-MEL-2 melanoma
[17] = test system: RPMI-8226 leukemia
[18] = test system: MDA-MB-231 breast
[19] = test system: SF-539 CNS
[20] = test system: PC-3 prostate
[21] = test system: HS 578T breast
[22] = test system: HCC-2998 colon
[23] = test system: HT29 colon
[24] = test system: DU-145 prostate
[25] = test system: IGROV1 ovarian
[26] = test system: SNB-19 CNS
[27] = test system: SK-OV-3 ovarian
[28] = test system: SW-620 colon
[29] = test system: K-562 leukemia
[30] = test system: COLO 205 colon
[31] = test system: HCT-116 colon
[32] = test system: SR leukemia
[33] = test system: ACHN renal
[34] = test system: SF-295 CNS
[35] = test system: OVCAR-3 ovarian
[36] = test system: SK-MEL-5 melanoma
[37] = test system: NCI-H23 lung
[38] = test system: CCRF-CEM leukemia
[39] = test system: HOP-92 NSCLC
[40] = test system: HOP-62 NSCLC
[41] = test system: UO-31 renal
[42] = test system: MOLT-4 leukemia
[43] = test system: MDA-MB-435
[44] = test system: SK-MEL-28 melanoma
[45] = test system: UACC-257 melanoma
[46] = test system: KM12 colon
[47] = test system: EKVX NSCLC
[48] = test system: A498 renal
[49] = test system: NCI/ADR-RES ovarian
[50] = test system: MCF7 breast
[51] = test system: NCI-H226 lung
[52] = test system: MDA-N
[53] = test system: RXF 393 renal
[54] = test system: U251 CNS
[55] = test system: OVCAR-4 ovarian
[56] = test system: T-47D breast
[57] = test system: TK-10 renal
[58] = test system: SNB-75 CNS
[59] = test system: HL-60(TB) leukemia

Compound: O=C1c2cc([N+](=O)[O-])sc2C(=O)c2ccsc21
- TGI [1]: 2.55 µM
- TGI [2]: 0.853 µM
- TGI [3]: 2.01 µM
- TGI [4]: 0.433 µM
- TGI [5]: 0.663 µM
- TGI [6]: 0.815 µM
- TGI [7]: 0.948 µM
- TGI [8]: 3.22 µM
- TGI [9]: 1.27 µM
- TGI [10]: 3.51 µM
- TGI [11]: 1.06 µM
- TGI [12]: 0.225 µM
- TGI [13]: 0.379 µM
- TGI [14]: 1.33 µM
- TGI [15]: 0.327 µM
- TGI [16]: 3.11 µM
- TGI [17]: 0.751 µM
- TGI [18]: 1.15 µM
- TGI [19]: 0.938 µM
- TGI [20]: 1.8 µM
- TGI [21]: 1.85 µM
- TGI [22]: 1.7 µM
- TGI [23]: 1.48 µM
- TGI [24]: 0.674 µM
- TGI [25]: 0.878 µM
- TGI [26]: 3.33 µM
- TGI [27]: 2.95 µM
- TGI [28]: 0.779 µM
- TGI [29]: 0.191 µM
- TGI [30]: 1.66 µM
- TGI [31]: 0.816 µM
- TGI [32]: < 0.0235 µM
- TGI [33]: 0.768 µM
- TGI [34]: 0.993 µM
- TGI [35]: 0.209 µM
- TGI [36]: 0.336 µM
- TGI [37]: 1.15 µM
- TGI [38]: 0.227 µM
- TGI [39]: 0.443 µM
- TGI [40]: 0.486 µM
- TGI [41]: 2.59 µM
- TGI [42]: 0.456 µM
- TGI [43]: 0.334 µM
- TGI [44]: 0.555 µM
- TGI [45]: 0.641 µM
- TGI [46]: 1.77 µM
- TGI [47]: 3.01 µM
- TGI [48]: 4.37 µM
- TGI [49]: 2.78 µM
- TGI [50]: 0.69 µM
- TGI [51]: 3.09 µM
- TGI [52]: 0.378 µM
- TGI [53]: 1.05 µM
- TGI [54]: 0.373 µM
- TGI [55]: 0.947 µM
- TGI [56]: 1.53 µM
- TGI [57]: 1.99 µM
- TGI [58]: 2.71 µM

Compound: O=P1(c2ccccc2)C2=CCC=CC2C(c2ccccc2)N1Cc1ccccc1 (configuration not stated)
- TGI [1]: 27 µM
- TGI [2]: 28.1 µM
- TGI [3]: 38.1 µM
- TGI [4]: 21.7 µM
- TGI [5]: 32.3 µM
- TGI [6]: 28.1 µM
- TGI [7]: 29.4 µM
- TGI [8]: > 100 µM
- TGI [9]: 31.6 µM
- TGI [10]: 32.3 µM
- TGI [11]: 30.9 µM
- TGI [13]: 24.6 µM
- TGI [14]: 31.5 µM
- TGI [15]: 32.9 µM
- TGI [16]: 29.9 µM
- TGI [17]: 30.5 µM
- TGI [18]: 33.6 µM
- TGI [19]: 31.5 µM
- TGI [20]: 27.6 µM
- TGI [21]: 43.9 µM
- TGI [23]: 24.2 µM
- TGI [24]: 31.4 µM
- TGI [25]: 32.9 µM
- TGI [26]: 41.2 µM
- TGI [27]: 31 µM
- TGI [28]: 43 µM
- TGI [29]: 35.5 µM
- TGI [30]: 29 µM
- TGI [31]: 32.2 µM
- TGI [32]: 53.5 µM
- TGI [33]: 30.4 µM
- TGI [34]: 28.8 µM
- TGI [36]: 29.8 µM
- TGI [37]: 24.8 µM
- TGI [38]: 34.9 µM
- TGI [39]: 26.6 µM
- TGI [40]: 37.6 µM
- TGI [41]: 25.8 µM
- TGI [42]: 38.7 µM
- TGI [43]: 29.8 µM
- TGI [59]: 39.9 µM
- TGI [45]: 34.9 µM
- TGI [46]: 28.3 µM
- TGI [47]: 28.7 µM
- TGI [49]: 32.2 µM
- TGI [50]: 25.6 µM
- TGI [52]: 38.2 µM
- TGI [54]: 30.7 µM
- TGI [56]: 36.8 µM
- TGI [57]: 35.4 µM

Compound: COc1cc(C=O)cc(C=Nc2ccc(S(N)(=O)=O)cc2)c1O
- TGI [1]: 49.3 µM
- TGI [2]: 74.6 µM
- TGI [3]: > 100 µM
- TGI [4]: > 100 µM
- TGI [5]: 14.6 µM
- TGI [6]: > 100 µM
- TGI [8]: > 100 µM
- TGI [9]: > 100 µM
- TGI [10]: > 100 µM
- TGI [11]: 39.2 µM
- TGI [12]: 42.7 µM
- TGI [13]: 44.5 µM
- TGI [14]: 35.5 µM
- TGI [15]: 7.78 µM
- TGI [16]: 20.8 µM
- TGI [17]: 33.3 µM
- TGI [18]: 76.4 µM
- TGI [19]: 7.94 µM
- TGI [20]: 21.3 µM
- TGI [21]: 6.16 µM
- TGI [22]: 42.7 µM
- TGI [23]: > 100 µM
- TGI [24]: > 100 µM
- TGI [25]: > 100 µM
- TGI [26]: > 100 µM
- TGI [27]: 7.93 µM
- TGI [28]: > 100 µM
- TGI [29]: > 100 µM
- TGI [30]: 76.9 µM
- TGI [31]: 94.7 µM
- TGI [32]: 42.1 µM
- TGI [33]: 35.2 µM
- TGI [34]: 23.2 µM
- TGI [35]: > 100 µM
- TGI [36]: 23 µM
- TGI [37]: > 100 µM
- TGI [38]: 33.8 µM
- TGI [39]: 21.7 µM
- TGI [40]: 48.5 µM
- TGI [41]: > 100 µM
- TGI [42]: 64.2 µM
- TGI [43]: 49 µM
- TGI [59]: 75.1 µM
- TGI [44]: 99 µM
- TGI [45]: 38.5 µM
- TGI [46]: > 100 µM
- TGI [47]: > 100 µM
- TGI [48]: 48.2 µM
- TGI [49]: > 100 µM
- TGI [50]: > 100 µM
- TGI [51]: 9.58 µM
- TGI [52]: 28.1 µM
- TGI [53]: 14.5 µM
- TGI [54]: > 100 µM
- TGI [55]: > 100 µM
- TGI [56]: > 100 µM
- TGI [57]: > 100 µM
- TGI [58]: > 100 µM

Compound: CSC1=C(C(=O)Nc2ccccc2)C(N)=NC1=O
- TGI [1]: > 100 µM
- TGI [2]: > 100 µM
- TGI [3]: > 100 µM
- TGI [4]: > 100 µM
- TGI [6]: > 100 µM
- TGI [7]: > 100 µM
- TGI [9]: > 100 µM
- TGI [10]: > 100 µM
- TGI [11]: > 100 µM
- TGI [12]: > 100 µM
- TGI [13]: > 100 µM
- TGI [14]: > 100 µM
- TGI [15]: > 100 µM
- TGI [16]: > 100 µM
- TGI [17]: > 100 µM
- TGI [18]: > 100 µM
- TGI [19]: > 100 µM
- TGI [20]: > 100 µM
- TGI [21]: > 100 µM
- TGI [22]: > 100 µM
- TGI [23]: > 100 µM
- TGI [24]: > 100 µM
- TGI [26]: > 100 µM
- TGI [27]: > 100 µM
- TGI [28]: > 100 µM
- TGI [29]: > 100 µM
- TGI [30]: > 100 µM
- TGI [31]: > 100 µM
- TGI [32]: > 100 µM
- TGI [36]: > 100 µM
- TGI [37]: > 100 µM
- TGI [38]: > 100 µM
- TGI [41]: > 100 µM
- TGI [42]: > 100 µM
- TGI [43]: > 100 µM
- TGI [59]: > 100 µM
- TGI [44]: > 100 µM
- TGI [45]: > 100 µM
- TGI [46]: > 100 µM
- TGI [47]: > 100 µM
- TGI [48]: > 100 µM
- TGI [49]: > 100 µM
- TGI [50]: > 100 µM
- TGI [51]: > 100 µM
- TGI [52]: > 100 µM
- TGI [53]: > 100 µM
- TGI [54]: > 100 µM
- TGI [55]: > 100 µM
- TGI [56]: > 100 µM
- TGI [57]: > 100 µM
- TGI [58]: > 100 µM
